{"source": "the NIST ThermoML archive (doi:10.1021/je049595u)", "key": {"[1]": {"test": "molar heat capacity at saturation pressure", "conditions": "Crystal, Vacuum adiabatic calorimetry"}}, "note": "Numbers after ± are expanded uncertainties."}
{"smiles": "Cc1ccc2ccccc2n1", "note": "[2-methylquinoline]", "values": [{"measurement": "vapor or sublimation pressure", "setting": "319.99 K, Liquid, Inclined piston gauge", "result": "0.0315 ± 0.001", "unit": "kPa"}, {"measurement": "mass density", "setting": "323.14 K, Liquid", "result": "1035.2 ± 0.5", "unit": "kg/m3"}, {"measurement": "vapor or sublimation pressure", "setting": "329.98 K, Liquid, Inclined piston gauge", "result": "0.063 ± 0.0011", "unit": "kPa"}, {"measurement": "vapor or sublimation pressure", "setting": "339.99 K, Liquid, Inclined piston gauge", "result": "0.1198 ± 0.0011", "unit": "kPa"}, {"measurement": "mass density", "setting": "348.14 K, Liquid", "result": "1015.9 ± 0.4", "unit": "kg/m3"}, {"measurement": "vapor or sublimation pressure", "setting": "349.98 K, Liquid, Inclined piston gauge", "result": "0.2174 ± 0.0013", "unit": "kPa"}, {"measurement": "vapor or sublimation pressure", "setting": "364.98 K, Liquid, Inclined piston gauge", "result": "0.4962 ± 0.0016", "unit": "kPa"}, {"measurement": "mass density", "setting": "373.12 K, Liquid", "result": "996.1 ± 0.4", "unit": "kg/m3"}, {"measurement": "vapor or sublimation pressure", "setting": "374.98 K, Liquid, Inclined piston gauge", "result": "0.8233 ± 0.002", "unit": "kPa"}, {"measurement": "vapor or sublimation pressure", "setting": "384.97 K, Liquid, Inclined piston gauge", "result": "1.323 ± 0.0026", "unit": "kPa"}, {"measurement": "vapor or sublimation pressure", "setting": "394.24 K, Liquid, Twin ebulliometer", "result": "2 ± 0.01", "unit": "kPa"}, {"measurement": "vapor or sublimation pressure", "setting": "394.97 K, Liquid, Inclined piston gauge", "result": "2.066 ± 0.0036", "unit": "kPa"}, {"measurement": "mass density", "setting": "398.12 K, Liquid", "result": "973.9 ± 0.5", "unit": "kg/m3"}, {"measurement": "vapor or sublimation pressure", "setting": "404.97 K, Liquid, Inclined piston gauge", "result": "3.141 ± 0.0047", "unit": "kPa"}, {"measurement": "vapor or sublimation pressure", "setting": "411.02 K, Liquid, Twin ebulliometer", "result": "4 ± 0.011", "unit": "kPa"}, {"measurement": "vapor or sublimation pressure", "setting": "418.53 K, Liquid, Twin ebulliometer", "result": "5.333 ± 0.011", "unit": "kPa"}, {"measurement": "mass density", "setting": "423.11 K, Liquid", "result": "952.8 ± 0.6", "unit": "kg/m3"}, {"measurement": "vapor or sublimation pressure", "setting": "429.68 K, Liquid, Twin ebulliometer", "result": "7.999 ± 0.012", "unit": "kPa"}, {"measurement": "vapor or sublimation pressure", "setting": "438.05 K, Liquid, Twin ebulliometer", "result": "10.67 ± 0.013", "unit": "kPa"}, {"measurement": "vapor or sublimation pressure", "setting": "444.81 K, Liquid, Twin ebulliometer", "result": "13.33 ± 0.014", "unit": "kPa"}, {"measurement": "mass density", "setting": "448.11 K, Liquid", "result": "931.9 ± 0.7", "unit": "kg/m3"}, {"measurement": "vapor or sublimation pressure", "setting": "451.84 K, Liquid, Twin ebulliometer", "result": "16.66 ± 0.015", "unit": "kPa"}, {"measurement": "vapor or sublimation pressure", "setting": "457.68 K, Liquid, Twin ebulliometer", "result": "19.93 ± 0.017", "unit": "kPa"}, {"measurement": "vapor or sublimation pressure", "setting": "465.36 K, Liquid, Twin ebulliometer", "result": "25.02 ± 0.018", "unit": "kPa"}, {"measurement": "vapor or sublimation pressure", "setting": "473.1 K, Liquid, Twin ebulliometer", "result": "31.18 ± 0.021", "unit": "kPa"}, {"measurement": "mass density", "setting": "473.11 K, Liquid", "result": "910.8 ± 0.9", "unit": "kg/m3"}, {"measurement": "vapor or sublimation pressure", "setting": "480.89 K, Liquid, Twin ebulliometer", "result": "38.56 ± 0.024", "unit": "kPa"}, {"measurement": "vapor or sublimation pressure", "setting": "488.72 K, Liquid, Twin ebulliometer", "result": "47.38 ± 0.028", "unit": "kPa"}, {"measurement": "vapor or sublimation pressure", "setting": "496.61 K, Liquid, Twin ebulliometer", "result": "57.82 ± 0.032", "unit": "kPa"}, {"measurement": "mass density", "setting": "498.11 K, Liquid", "result": "888.8 ± 1.1", "unit": "kg/m3"}, {"measurement": "vapor or sublimation pressure", "setting": "504.55 K, Liquid, Twin ebulliometer", "result": "70.12 ± 0.036", "unit": "kPa"}, {"measurement": "vapor or sublimation pressure", "setting": "512.53 K, Liquid, Twin ebulliometer", "result": "84.53 ± 0.042", "unit": "kPa"}, {"measurement": "vapor or sublimation pressure", "setting": "520.57 K, Liquid, Twin ebulliometer", "result": "101.33 ± 0.048", "unit": "kPa"}, {"measurement": "mass density", "setting": "523.11 K, Liquid", "result": "865.1 ± 1.4", "unit": "kg/m3"}, {"measurement": "vapor or sublimation pressure", "setting": "528.66 K, Liquid, Twin ebulliometer", "result": "120.79 ± 0.05", "unit": "kPa"}, {"measurement": "vapor or sublimation pressure", "setting": "536.8 K, Liquid, Twin ebulliometer", "result": "143.25 ± 0.06", "unit": "kPa"}, {"measurement": "vapor or sublimation pressure", "setting": "544.98 K, Liquid, Twin ebulliometer", "result": "169.02 ± 0.07", "unit": "kPa"}, {"measurement": "vapor or sublimation pressure", "setting": "553.22 K, Liquid, Twin ebulliometer", "result": "198.49 ± 0.08", "unit": "kPa"}, {"measurement": "vapor or sublimation pressure", "setting": "561.5 K, Liquid, Twin ebulliometer", "result": "232.02 ± 0.09", "unit": "kPa"}, {"measurement": "vapor or sublimation pressure", "setting": "569.83 K, Liquid, Twin ebulliometer", "result": "270.02 ± 0.1", "unit": "kPa"}, {"measurement": "mass density", "setting": "762.9 K, Gas, Measured as part of TC determination by DSC", "result": "163.3 ± 16", "unit": "kg/m3"}, {"measurement": "mass density", "setting": "773.9 K, Liquid, Measured as part of TC determination by DSC", "result": "410.8 ± 41", "unit": "kg/m3"}, {"measurement": "mass density", "setting": "775.2 K, Gas, Measured as part of TC determination by DSC", "result": "236.6 ± 24", "unit": "kg/m3"}, {"measurement": "mass density", "setting": "775.9 K, Liquid, Measured as part of TC determination by DSC", "result": "355.4 ± 36", "unit": "kg/m3"}, {"measurement": "mass density", "setting": "777.9 K, Gas, Measured as part of TC determination by DSC", "result": "292.9 ± 29", "unit": "kg/m3"}, {"measurement": "Triple point temperature", "setting": "Crystal", "result": "270.48 ± 0.05", "unit": "K"}, {"measurement": "Critical temperature", "setting": "Liquid, DTA", "result": "778 ± 2", "unit": "K"}, {"measurement": "molar heat capacity", "setting": "[1]; 5 K", "result": "0.46 ± 0.02", "unit": "J/K/mol"}, {"measurement": "molar heat capacity", "setting": "[1]; 5.565 K", "result": "0.62 ± 0.02", "unit": "J/K/mol"}, {"measurement": "molar heat capacity", "setting": "[1]; 6.404 K", "result": "0.956 ± 0.02", "unit": "J/K/mol"}, {"measurement": "molar heat capacity", "setting": "[1]; 7.354 K", "result": "1.4 ± 0.02", "unit": "J/K/mol"}, {"measurement": "molar heat capacity", "setting": "[1]; 8.354 K", "result": "1.96 ± 0.03", "unit": "J/K/mol"}, {"measurement": "molar heat capacity", "setting": "[1]; 9.372 K", "result": "2.64 ± 0.03", "unit": "J/K/mol"}, {"measurement": "molar heat capacity", "setting": "[1]; 10 K", "result": "3.14 ± 0.04", "unit": "J/K/mol"}, {"measurement": "molar heat capacity", "setting": "[1]; 10.39 K", "result": "3.48 ± 0.04", "unit": "J/K/mol"}, {"measurement": "molar heat capacity", "setting": "[1]; 11.53 K", "result": "4.41 ± 0.05", "unit": "J/K/mol"}, {"measurement": "molar heat capacity", "setting": "[1]; 12.8 K", "result": "5.65 ± 0.06", "unit": "J/K/mol"}, {"measurement": "molar heat capacity", "setting": "[1]; 14.21 K", "result": "7.09 ± 0.07", "unit": "J/K/mol"}, {"measurement": "molar heat capacity", "setting": "[1]; 15.75 K", "result": "8.78 ± 0.07", "unit": "J/K/mol"}, {"measurement": "molar heat capacity", "setting": "[1]; 17.46 K", "result": "10.78 ± 0.083", "unit": "J/K/mol"}, {"measurement": "molar heat capacity", "setting": "[1]; 19.36 K", "result": "13.04 ± 0.091", "unit": "J/K/mol"}, {"measurement": "molar heat capacity", "setting": "[1]; 20 K", "result": "13.79 ± 0.091", "unit": "J/K/mol"}, {"measurement": "molar heat capacity", "setting": "[1]; 21.49 K", "result": "15.56 ± 0.091", "unit": "J/K/mol"}, {"measurement": "molar heat capacity", "setting": "[1]; 23.83 K", "result": "18.39 ± 0.1", "unit": "J/K/mol"}, {"measurement": "molar heat capacity", "setting": "[1]; 26.43 K", "result": "21.5 ± 0.1", "unit": "J/K/mol"}, {"measurement": "molar heat capacity", "setting": "[1]; 29.31 K", "result": "24.82 ± 0.1", "unit": "J/K/mol"}, {"measurement": "molar heat capacity", "setting": "[1]; 30 K", "result": "25.6 ± 0.091", "unit": "J/K/mol"}, {"measurement": "molar heat capacity", "setting": "[1]; 32.52 K", "result": "28.38 ± 0.1", "unit": "J/K/mol"}, {"measurement": "molar heat capacity", "setting": "[1]; 36.12 K", "result": "32.14 ± 0.11", "unit": "J/K/mol"}, {"measurement": "molar heat capacity", "setting": "[1]; 39.68 K", "result": "35.64 ± 0.12", "unit": "J/K/mol"}, {"measurement": "molar heat capacity", "setting": "[1]; 40 K", "result": "35.96 ± 0.12", "unit": "J/K/mol"}, {"measurement": "molar heat capacity", "setting": "[1]; 43.66 K", "result": "39.34 ± 0.12", "unit": "J/K/mol"}, {"measurement": "molar heat capacity", "setting": "[1]; 48.56 K", "result": "43.53 ± 0.12", "unit": "J/K/mol"}, {"measurement": "molar heat capacity", "setting": "[1]; 50 K", "result": "44.72 ± 0.13", "unit": "J/K/mol"}, {"measurement": "molar heat capacity", "setting": "[1]; 52.54 K", "result": "46.74 ± 0.13", "unit": "J/K/mol"}, {"measurement": "molar heat capacity", "setting": "[1]; 53.49 K", "result": "47.45 ± 0.13", "unit": "J/K/mol"}, {"measurement": "molar heat capacity", "setting": "[1]; 53.98 K", "result": "47.92 ± 0.14", "unit": "J/K/mol"}, {"measurement": "molar heat capacity", "setting": "[1]; 57.46 K", "result": "50.56 ± 0.14", "unit": "J/K/mol"}, {"measurement": "molar heat capacity", "setting": "[1]; 58.64 K", "result": "51.46 ± 0.14", "unit": "J/K/mol"}, {"measurement": "molar heat capacity", "setting": "[1]; 60 K", "result": "52.34 ± 0.14", "unit": "J/K/mol"}, {"measurement": "molar heat capacity", "setting": "[1]; 60.03 K", "result": "52.29 ± 0.14", "unit": "J/K/mol"}, {"measurement": "molar heat capacity", "setting": "[1]; 63.2 K", "result": "54.47 ± 0.15", "unit": "J/K/mol"}, {"measurement": "molar heat capacity", "setting": "[1]; 64.47 K", "result": "55.29 ± 0.15", "unit": "J/K/mol"}, {"measurement": "molar heat capacity", "setting": "[1]; 69.56 K", "result": "58.68 ± 0.16", "unit": "J/K/mol"}, {"measurement": "molar heat capacity", "setting": "[1]; 70 K", "result": "58.93 ± 0.16", "unit": "J/K/mol"}, {"measurement": "molar heat capacity", "setting": "[1]; 76.52 K", "result": "62.82 ± 0.17", "unit": "J/K/mol"}, {"measurement": "molar heat capacity", "setting": "[1]; 80 K", "result": "64.8 ± 0.17", "unit": "J/K/mol"}]}
